Experimental data from patent publication US20160083391A1, “TRICYCLIC PIPERAZINE DERIVATIVE” (Sunovion Pharmaceuticals Inc., priority 2014, published 2016).

Tested on: PDE1
Assay: In vitro HTRF PDE1 inhibition assay
Type: biochemical
Details: HTRF cGMP assay, 100 nM cyclic GMP, PDE (1A3, 1B or 1C) with calmodulin, 45 minutes at 37° C.; isoform of the tabulated values not stated
Description: An exemplary procedure for the in vitro Homogenous Time Resolved Fluorescence assay, which can be used to determine the inhibitory action of compounds of the invention toward. PDE1 or its isoforms, follows.
The HTRF PDE1 assay utilized the HTRF (Homogenous Time Resolved Fluorescence) technology, which is based on the competition between unlabeled cyclic nucleotide and cyclic nucleotide labeled with XL665 for the binding to cyclic nucleotide-specific antibody labeled with cryptate. The HTRF signal is thus inversely proportional to the concentration of cyclic nucleotide being measured. Since phosphodiesterases break down cyclic nucleotides the HTRF signal was used to determine PDE activity.
The Cisbio cGMP HTRF assay kit (Cat no: 62GM2PEC) was utilized. Cyclic GMP was diluted to 200 nM in HTRF assay buffer (1 mM CaCl2, 10 mM MgCl2, 10 mM Tris-HCl, 0.1% BSA, pH7.4). 10 μl of compound or DMSO was diluted in 200 nM cyclic GMP solution and added to wells of a 96 well white plate to give 100 nM cyclic GMP in 1% DMSO final concentration. PDE (1A3, 1B or 1C) was diluted to 2× working concentration in HTRF assay buffer with […] Calmodulin, and 10 μl was added to initiate the reaction. The plate was then incubated for 45 minutes at 37° C. d2-Labelled cyclic GMP and anti-cGMP cryptate were diluted in 50 mM phosphate buffer, 0.8M KF, 1% Triton X100, 0.2% BSA, pH7.0. Following incubation 10 μl d2-cGMP, then 10 μl anti cGMP cryptate were added to each well and the plate was incubated for 45 minutes at room temperature. The plate was then read on Perkin Elmer Victor at 2 different FRET readings ex/emm 340 nm/665 nm and 340 nm/615 nm.
Compounds having an IC50 of <1 μM, are denoted as +++. Compounds having an IC50 of 1-10 μM, are denoted as ++. Compounds having an IC50 of >10 μM, are denoted as +.

SMILES | IC50 [nM]
COc1cccc(CN2CCn3c(nc4c(cnn4C(C)C)c3=O)C2)c1 [Compound I-79, 1-Isopropyl-8-(3-methoxybenzyl)-6,7,8,9-tetrahydropyrazino[1,2-a]pyrazolo[3,4-d]pyrimidin-4(1H)-one] | 1000 to 10000
COc1ccc(CN2CCn3c(nc4c(C5CCCC5)n[nH]c4c3=O)C2)cc1 [Compound I-123, 3-Cyclopentyl-6-(4-methoxybenzyl)-5,6,7,8-tetrahydropyrazino[1,2-a]pyrazolo[4,3-d]pyrimidin-10(1H)-one] | > 10000
O=c1c2cnc(C3CC3)n2nc2n1CCN(c1ccc(Cl)cc1)C2 [Compound I-251, 7-(4-Chlorophenyl)-3-cyclopropyl-8,9-dihydro-6H-imidazo[5,1-f]pyrazino[2,1-c][1,2,4]triazin-11(7H)-one] | < 1000
O=c1c2cnn(C3CCC3)c2nc2n1CCN(c1ccc(Cl)cc1)C2 [Compound I-246, 8-(4-Chlorophenyl)-1-cyclobutyl-6,7,8,9-tetrahydropyrazino[1,2-a]pyrazolo[3,4-d]pyrimidin-4(1H)-one] | 1000 to 10000
CC(C)c1ncc2c(=O)n3c(nn12)CN(c1ccc(C#N)cc1)CC3 [Compound I-238, 4-(3-Isopropyl-11-oxo-8,9-dihydro-6H-imidazo[5,1-f]pyrazino[2,1-c][1,2,4]triazin-7(11H)-yl)benzonitrile] | < 1000
O=c1c2cnn(C3CCCC3)c2nc2n1CCN(c1ccccc1Cl)C2 [Compound I-87, 8-(2-Chlorophenyl)-1-cyclopentyl-6,7,8,9-tetrahydropyrazino[1,2-a]pyrazolo[3,4-d]pyrimidin-4(1H)-one] | 1000 to 10000
O=c1c2cnn(C3CCOC3)c2nc2n1CCN(c1ccc(Cl)cc1)C2 (racemic) [Compound I-217, (±)-8-(4-Chlorophenyl)-1-(tetrahydrofuran-3-yl)-6,7,8,9-tetrahydropyrazino[1,2-a]pyrazolo[3,4-d]pyrimidin-4(1H)-one] | < 1000
O=c1c2cnn(-c3ccccc3)c2nc2n1CCNC2Cc1ccccc1 (racemic) [Compound I-9, (±)-9-Benzyl-1-phenyl-6,7,8,9-tetrahydropyrazino[1,2-a]pyrazolo[3,4-d]pyrimidin-4(1H)-one] | > 10000
Cc1cnc(CN2CCn3c(nc4c(cnn4C4CCCC4)c3=O)C2)cn1 [Compound I-207, 1-Cyclopentyl-8-((5-methylpyrazin-2-yl)methyl)-6,7,8,9-tetrahydropyrazino[1,2-a]pyrazolo[3,4-d]pyrimidin-4(1H)-one] | 1000 to 10000
CC(C)n1ncc2c(=O)n3c(nc21)CN(c1ccc(Cl)cc1)CC3 [Compound I-91, 8-(4-Chlorophenyl)-1-isopropyl-6,7,8,9-tetrahydropyrazino[1,2-a]pyrazolo[3,4-d]pyrimidin-4(1H)-one] | < 1000
O=c1c2cnn(C3CC3)c2nc2n1CCN(Cc1ccccc1)C2 [Compound I-53, 8-Benzyl-1-cyclopropyl-6,7,8,9-tetrahydropyrazino[1,2-a]pyrazolo[3,4-d]pyrimidin-4(1H)-one] | > 10000
CC(C)n1ncc2c(=O)n3c(nc21)CN(c1ccc(F)cc1)CC3 [Compound I-142, 8-(4-Fluorophenyl)-1-isopropyl-6,7,8,9-tetrahydropyrazino[1,2-a]pyrazolo[3,4-d]pyrimidin-4(1H)-one] | < 1000
CCCn1ncc2c(=O)n3c(nc21)CN(Cc1cccc(OC)c1)CC3 [Compound I-254, 8-(3-Methoxybenzyl)-1-propyl-6,7,8,9-tetrahydropyrazino[1,2-a]pyrazolo[3,4-d]pyrimidin-4(1H)-one] | 1000 to 10000
CCOc1cccc(N2CCn3c(nc4c(cnn4C(C)C)c3=O)C2)c1 [Compound I-141, 8-(3-Ethoxyphenyl)-1-isopropyl-6,7,8,9-tetrahydropyrazino[1,2-a]pyrazolo[3,4-d]pyrimidin-4(1H)-one] | < 1000
COc1cccc(N2CCn3c(nn4c(C(C)C)ncc4c3=O)C2)c1 [Compound I-174, 3-Isopropyl-7-(3-methoxyphenyl)-8,9-dihydro-6H-imidazo[5,1-f]pyrazino[2,1-c][1,2,4]triazin-11(7H)-one] | < 1000
